In assay [1] the target is T1, TP A160T mutant (nsSNP variant) (Homo sapiens, UniProt P21731, A160T).
T1 construct: expressed in transfected cells; HEK293T (calcium assays)
T1 sequence (P21731 1-343 A160T): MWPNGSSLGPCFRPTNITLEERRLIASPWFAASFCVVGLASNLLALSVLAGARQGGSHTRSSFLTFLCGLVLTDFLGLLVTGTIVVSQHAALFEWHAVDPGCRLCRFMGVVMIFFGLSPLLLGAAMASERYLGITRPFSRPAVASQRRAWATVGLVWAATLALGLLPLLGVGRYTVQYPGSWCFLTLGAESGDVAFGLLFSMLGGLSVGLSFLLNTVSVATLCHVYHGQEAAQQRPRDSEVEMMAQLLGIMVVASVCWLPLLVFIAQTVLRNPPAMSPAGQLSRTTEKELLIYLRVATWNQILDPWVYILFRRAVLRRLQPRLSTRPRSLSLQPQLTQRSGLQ
Kind of assay: Reversal of basal (agonist-independent) calcium mobilization in transfected HEK293T cells. The following applies: HEK293T cells pre-treated with 1 µM unlabelled SQ 29,548, p<0.05. Type of assay: cell-based. The procedure:
Changes in intracellular calcium were measured by using the fluorescent calcium sensitive dye Fluo-4NW (Invitrogen). After 6–8 hours of transient transfection of HEK293T cells using lipofectamine 2000, 100,000 viable cells were plated into each well of a 96-well tissue culture treated BD-falcon optilux plates. Cells mock transfected with vector pMT4 alone were used as a negative control. Following 24 hours of incubation at 37°C, the media was removed and cells were incubated with the dye Fluo-4NW (Invitrogen) containing 77 µg/ml of probenecid for 1 hour, as recommended by the manufacturer. […] Dose–response curves were generated and EC50 values calculated by nonlinear regression analysis using PRISM software version 5.0 (GraphPad Software Inc, San Diego, CA) after subtracting the responses of mock-transfected cells stimulated with same concentrations of agonists.
For estimation of calcium mobilized using the non-ratiometric calcium indicator Fluo-4NW, the ΔF/F ratio which approximately indicates calcium is calculated using the equation (19), ΔF/F = (F-Fbase)/(Fbase -B). Where F is the measured fluorescence intensity of Fluo-4NW, Fbase is the fluorescence intensity of Fluo-4NW in the cell before stimulation, and B is the background signal determined from areas adjacent to the cell. […]
In general terms: Calcium assays in cells follow changes in intracellular calcium, usually with a dye or a luminescent sensor.

A further assay deals with T2, TP A160S mutant (Homo sapiens, UniProt P21731, A160S).
T2 construct: expressed in transfected cells; HEK293T (calcium assays)
T2 sequence (P21731 1-343 A160S): T1 sequence (P21731 1-343 A160T) with T160S
Kind of assay: Heterologous competition binding, unlabeled U46619 against 4 nM [3H] SQ 29,548. Conditions: read-out: Ki of agonist U46619, 4 nM [3H] SQ 29,548, 2 hr room temperature, Cheng-Prusoff from IC50. As for the experimental part: (§1) Amino acid substitutions were introduced into the synthetic TPα gene carried by the expression vector pMT4 as described previously, [29]. DNA sequences of all the mutated genes were verified by automated DNA sequencing. To minimize variations in transfection efficiency, the total amount transfected DNA was kept constant in all cases at 1 µg of DNA per 7×10^5 cells. The wild type TP or mutant genes were expressed in COS-1 cells using a DEAE-dextran based transient transfection method, [29], and in HEK293T cells using lipofectamine 2000 (Invitrogen). Except unless specified, the membranes prepared from COS-1 cells were used for radioligand binding assays and immunoblots. For intracellular calcium determination assays and immunofluorescence imaging, HEK293T cells were used. For transient transfections of HEK293T cells using the plasmid pMT4, lipofectamine 2000 (Invitrogen) mediated transfection was used as described by the manufacturer. Membranes were prepared using Buffers A and B and as described previously, [29]. The protein concentration in the resuspended membrane pellet was determined using a modified DC protein assay kit from Bio-Rad Laboratories (Hercules, CA).
(§2) These were carried out in Buffer C for 60 min at room temperature, using 2 to 20 µg of membrane protein and different concentrations of [^3H] […] Binding of [^3H] […] Competition binding assays were performed using 4 nM [^3H] […] Binding was terminated by filtering under vacuum on GF/A filters (Millipore). Filter-bound radioactivity was measured using a liquid scintillation counter. Equilibrium dissociation constants (Kd) were determined from saturation isotherms using PRISM software version 5.0 (GraphPad Software Inc, San Diego, CA, USA). The Ki values were calculated from the IC50, using the equation of Cheng and Prusoff by PRISM software version 5.0. Where applicable, statistical significance of the data was evaluated using analysis of variance (ANOVA) and/or unpaired t test.

The target in assay [2] is T1, TP A160T mutant (nsSNP variant). The description is as above. Conditions: read-out: Ki of agonist U46619, 4 nM [3H] SQ 29,548, 2 hr room temperature, Cheng-Prusoff from IC50. The procedure:
as §1, §2

The target in the next assay is T3, TP A160V mutant (Homo sapiens, UniProt P21731, A160V).
T3 construct: expressed in transfected cells; HEK293T (calcium assays)
T3 sequence (P21731 1-343 A160V): T1 sequence (P21731 1-343 A160T) with T160V
The assay is described as above. Conditions: read-out: Ki of agonist U46619, 4 nM [3H] SQ 29,548, 2 hr room temperature, Cheng-Prusoff from IC50. As for the experimental part: as §1, §2

Here are results for 2 compounds from publication PMC3260207, “Site-Directed Mutations and the Polymorphic Variant Ala160Thr in the Human Thromboxane Receptor Uncover a Structural Role for Transmembrane Helix 4” (PLoS ONE, 2012).

What is called Ki is a dissociation constant, usually derived from enzyme kinetics or from competition with a known ligand.

Numbering of substitutions follows the chain as printed.

`O=C(O)CCC/C=C\C[C@@H]1[C@H](CNNC(=O)Nc2ccccc2)[C@H]2CC[C@@H]1O2` [SQ 29,548]: the “Effect on basal (agonist-independent) calcium mobilization” value in assay [1] is on record as “significant decrease in basal activity”.

`CCCCC[C@H](O)/C=C/[C@@H]1[C@@H](C/C=C\CCCC(=O)O)[C@H]2CO[C@@H]1C2` [U46619]: the Ki worked out at 1520 nM on TP A160S mutant, 720 nM in assay [2] and 1510 nM at TP A160V mutant.
